System: citric acid-induced cough responses
Assay: Antitussive activity against citric acid aerosol-induced cough in conscious guinea-pigs
Assay type: in vivo, guinea-pig
Conditions: aerosol pre-treatment at 5.0 mg/ml for 5 minutes immediately before citric acid (1M) exposure, vehicle 25% ethanol, 15 minute observation period
Excerpt: The following method is one of the general methods available to determine the antitussive activity of the compounds of the present invention.
Male albino Dunkin-Hartley strain guinea-pigs (weight 300-400 g) can be obtained from various commercial suppliers.
The method is a modification of that described by Adcock J. J., Schneider C. and Smith T. W., “Effects of Morphine and a Novel Opioid Pentapeptide BW443C, on Cough, Nociception and Ventilation in the Unanaesthetized Guinea-pig”, Br. J. Pharmacol., 93, 93-100 (1988). […]
Cylinder air is introduced into the exposure chamber at a flow rate of 1 liter/min, maintained by a needle valve and monitored by a rotameter. […]
Cough responses are induced by exposure to an aerosol of citric acid (1M) for 10 minutes. Animals are continuously monitored by trained observer, and the number of coughs are counted during a 15 minute period from commencement of the citric acid aerosol administration. […]
The three types of response are differentiated primarily by sound and visual observation. […] Each cough is marked on the Grass polygraph paper trace, and from these record numbers, frequency and time of onset of coughs are determined. […]
Quantities of drugs are weighed out and dissolved in a vehicle. […] The sequence of pre-treatment administration is determined according to a 4×4 Latin Square design. […]

CCCCC[N+]1(C)CCCCC1C(=O)Nc1c(C)cccc1C.[I-] (stereo not shown) [N-methyl-bupivacaine iodide, 2-{[(2,6-Dimethylphenyl)amino]carbonyl}-1-methyl-1-pentylpiperidinium iodide]
inhibition of cough responses compared with vehicle pre-treated guinea pigs: > 90%
